Columns and labels:
giant foxtail = test: Test A pre-/postemergence herbicide test; format: in vivo, Setaria faberii
Procedure, shortened: (§1)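 Visual injury ratings, 0 = no effect, 100 = complete control, taken ~10 days after treatment against untreated greenhouse controls. Preemergence: directed soil spray onto seeded loam/sand pots. Postemergence: spray onto plants at one- to two-leaf stage, 2–10 cm tall.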

ryegrass, Italian = test: Test A pre-/postemergence herbicide test; format: in vivo, Lolium multiflorum
Procedure, shortened: as §1

ducksalad = test: Test B flooded paddy test; format: in vivo, Heteranthera limosa; conditions: 500 g ai/ha, Flood; scale of 0 to 100 where 0 is no effect and 100 is complete control
Procedure, shortened: (§2)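 Plants were grown to the 2-leaf stage, then pots were flooded to 3 cm above the soil and compound was applied directly into the paddy water, with that depth held throughout. After 13 to 15 days in a greenhouse, injury was rated visually against untreated controls on a 0 to 100 scale (100 = complete control).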

corn = test: Test A pre-/postemergence herbicide test; format: in vivo, Zea mays; conditions: Postemergence
Procedure, shortened: as §1

sedge, umbrella = test: Test B flooded paddy test; format: in vivo, Cyperus difformis; conditions: 500 g ai/ha, Flood; scale of 0 to 100 where 0 is no effect and 100 is complete control
Procedure, shortened: as §2

barnyardgrass [1] = test: Test A pre-/postemergence herbicide test; format: in vivo, Echinochloa crus-galli
Procedure, shortened: as §1

barnyardgrass [2] = test: Test B flooded paddy test; format: in vivo, Echinochloa crus-galli; conditions: 500 g ai/ha, Flood; scale of 0 to 100 where 0 is no effect and 100 is complete control
Procedure, shortened: as §2

wheat = test: Test A pre-/postemergence herbicide test; format: in vivo, Triticum aestivum; conditions: Postemergence
Procedure, shortened: as §1

galium = test: Test A postemergence herbicide test; format: in vivo, Galium aparine
Procedure, shortened: (§3)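 Visual injury rating, 0 (no effect) to 100 (complete control), versus untreated controls ~10 days after treatment. Postemergence spray applied at one- to two-leaf stage, plants 2–10 cm tall, potted in loam soil/sand. Greenhouse-held.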

kochia = test: Test A pre-/postemergence herbicide test; format: in vivo, Kochia scoparia
Procedure, shortened: as §1

rice = test: Test B flooded paddy test; format: in vivo, Oryza sativa; conditions: 500 g ai/ha, Flood; scale of 0 to 100 where 0 is no effect and 100 is complete control
Procedure, shortened: as §2

pigweed = test: Test A pre-/postemergence herbicide test; format: in vivo, Amaranthus retroflexus
Procedure, shortened: as §1

ragweed = test: Test A pre-/postemergence herbicide test; format: in vivo, Ambrosia elatior
Procedure, shortened: as §1

blackgrass = test: Test A postemergence herbicide test; format: in vivo, Alopecurus myosuroides
Procedure, shortened: as §3

[3] = 125 g ai/ha, visual rating, 0 to 100 scale, 0 no effect, 100 complete control, approximately 10 days, preemergence
[4] = Postemergence, 125 g ai/ha, 0 to 100 scale, 0 no effect, 100 complete control
[5] = preemergence, 500 g ai/ha, 0 to 100 scale
[6] = 125 g ai/ha, 0 to 100 scale, 0 no effect, 100 complete control
[7] = Postemergence, 125 g ai/ha, 0 to 100 scale, 0 is no effect, 100 is complete control
[8] = preemergence, 500 g ai/ha, 0 to 100 scale, 0 is no effect and 100 is complete control
[9] = 125 g ai/ha, 0 to 100 scale, 0 is no effect, 100 is complete control
[10] = Postemergence, 125 g ai/ha, visual rating on 0 to 100 scale (0 no effect, 100 complete control), approx. 10 days
[11] = Postemergence, 500 g ai/ha, 0 to 100 scale (0 no effect, 100 complete control)
[12] = Preemergence, 125 g ai/ha, 0 to 100 scale where 0 is no effect and 100 is complete control
[13] = 125 g ai/ha, visual rating on 0 to 100 scale (0 no effect, 100 complete control), approx. 10 days
[14] = 500 g ai/ha, 0 to 100 scale (0 no effect, 100 complete control)

`Cc1ccc(C2CNC(=O)C2C(=O)Nc2cccc(F)c2F)cc1` (racemic) [Compound 151] was tested, and the “Plant response rating, Foxtail, Giant” value (giant foxtail; [3]) was 80, the “Plant response rating, Foxtail, Giant” value (giant foxtail; [4]) was 60 and the “Foxtail, Giant plant response rating (0 to 100 scale, 0 is no effect, 100 is complete control)” value (giant foxtail; Postemergence, 500 g ai/ha) was 70. The “Plant response rating, Foxtail, Giant” value (giant foxtail; [5]) was 90, the “Plant response rating, Ryegrass, Italian” value (ryegrass, Italian; [3]) was 10 and the “Plant response rating, Ryegrass, Italian” value (ryegrass, Italian; [4]) was 30. The “Ryegrass, Italian plant response rating (0 to 100 scale, 0 is no effect, 100 is complete control)” value (ryegrass, Italian; Postemergence, 500 g ai/ha) was 50, the “Plant response rating, Ryegrass, Italian” value (ryegrass, Italian; [5]) was 60 and the “Plant response rating, Ducksalad” value (ducksalad) was 100. For the same molecule, the “Plant response rating, Corn” value (corn; [6]) was 0, the “Corn plant response rating (0 to 100 scale, 0 is no effect, 100 is complete control)” value (corn; 500 g ai/ha) was 50 and the “Plant response rating, Sedge, Umbrella” value (sedge, umbrella) was 0. The “Plant response rating, Barnyardgrass” value (barnyardgrass [1]; [3]) was 90, the “Plant response rating, Barnyardgrass” value (barnyardgrass [1]; [4]) was 80 and the “Barnyardgrass plant response rating (0 to 100 scale, 0 is no effect, 100 is complete control)” value (barnyardgrass [1]; Postemergence, 500 g ai/ha) was 90. The “Plant response rating, Barnyardgrass” value (barnyardgrass [1]; preemergence, 500 g ai/ha, 0 to 100 scale (0 no effect, 100 complete control)) was 90, the “Plant response rating, Barnyardgrass” value (barnyardgrass [2]) was 90 and the “Plant response rating, Wheat” value (wheat; [6]) was 0. The “Wheat plant response rating (0 to 100 scale, 0 is no effect, 100 is complete control)” value (wheat; 500 g ai/ha) was 60, the “Plant response rating, Galium” value (galium; [6]) was 60 and the “Galium plant response rating (0 to 100 scale, 0 is no effect, 100 is complete control)” value (galium; 500 g ai/ha) was 70. The “Plant response rating, Kochia” value (kochia; [3]) was 90, the “Plant response rating, Kochia” value (kochia; [4]) was 70 and the “Kochia plant response rating (0 to 100 scale, 0 is no effect, 100 is complete control)” value (kochia; Postemergence, 500 g ai/ha) was 80. For the same molecule, the “Plant response rating, Kochia” value (kochia; [5]) was 90, the “Plant response rating, Rice” value (rice) was 0 and the “Plant response rating, Pigweed” value (pigweed; [3]) was 0. For the same molecule, the “Plant response rating, Pigweed” value (pigweed; [4]) was 50, the “Pigweed plant response rating (0 to 100 scale, 0 is no effect, 100 is complete control)” value (pigweed; Postemergence, 500 g ai/ha) was 60 and the “Plant response rating, Pigweed” value (pigweed; [5]) was 0. The “Plant response rating, Ragweed” value (ragweed; [3]) was 90, the “Plant response rating, Ragweed” value (ragweed; [4]) was 60 and the “Ragweed plant response rating (0 to 100 scale, 0 is no effect, 100 is complete control)” value (ragweed; Postemergence, 500 g ai/ha) was 70. The “Plant response rating, Ragweed” value (ragweed; [5]) was 90, the “Plant response rating, Blackgrass” value (blackgrass; [6]) was 40 and the “Blackgrass plant response rating (0 to 100 scale, 0 is no effect, 100 is complete control)” value (blackgrass; 500 g ai/ha) was 70.

`O=C1NCC(c2ccc(OC(F)F)cc2)C1C(=O)Nc1ccccc1Br` (stereo not drawn) [Compound 225] was tested, and the “Plant response rating, Foxtail, Giant” value (giant foxtail; [3]) was 80, the “Plant response rating, Foxtail, Giant” value (giant foxtail; [7]) was 40 and the “Foxtail, Giant plant response rating (0 to 100 scale, 0 is no effect, 100 is complete control)” value (giant foxtail; Postemergence, 500 g ai/ha) was 70. The “Plant response rating, Foxtail, Giant” value (giant foxtail; [8]) was 90, the “Plant response rating, Ryegrass, Italian” value (ryegrass, Italian; [3]) was 0 and the “Plant response rating, Ryegrass, Italian” value (ryegrass, Italian; [7]) was 0. The “Ryegrass, Italian plant response rating (0 to 100 scale, 0 is no effect, 100 is complete control)” value (ryegrass, Italian; Postemergence, 500 g ai/ha) was 0, the “Plant response rating, Ryegrass, Italian” value (ryegrass, Italian; [8]) was 40 and the “Plant response rating, Ducksalad” value (ducksalad) was 90. For the same molecule, the “Plant response rating, Corn” value (corn; [9]) was 0, the “Corn plant response rating (0 to 100 scale, 0 is no effect, 100 is complete control)” value (corn; 500 g ai/ha) was 20 and the “Plant response rating, Sedge, Umbrella” value (sedge, umbrella) was 0. For the same molecule, the “Plant response rating, Barnyardgrass” value (barnyardgrass [1]; [3]) was 20, the “Plant response rating, Barnyardgrass” value (barnyardgrass [1]; [7]) was 30 and the “Barnyardgrass plant response rating (0 to 100 scale, 0 is no effect, 100 is complete control)” value (barnyardgrass [1]; Postemergence, 500 g ai/ha) was 60. For the same molecule, the “Plant response rating, Barnyardgrass” value (barnyardgrass [1]; [8]) was 30, the “Plant response rating, Barnyardgrass” value (barnyardgrass [2]) was 0 and the “Plant response rating, Wheat” value (wheat; [9]) was 0. The “Wheat plant response rating (0 to 100 scale, 0 is no effect, 100 is complete control)” value (wheat; 500 g ai/ha) was 20, the “Plant response rating, Galium” value (galium; [9]) was 20 and the “Galium plant response rating (0 to 100 scale, 0 is no effect, 100 is complete control)” value (galium; 500 g ai/ha) was 30. The “Plant response rating, Kochia” value (kochia; [3]) was 0, the “Plant response rating, Kochia” value (kochia; [7]) was 0 and the “Kochia plant response rating (0 to 100 scale, 0 is no effect, 100 is complete control)” value (kochia; Postemergence, 500 g ai/ha) was 0. For the same molecule, the “Plant response rating, Kochia” value (kochia; [8]) was 30, the “Plant response rating, Rice” value (rice) was 0 and the “Plant response rating, Pigweed” value (pigweed; [3]) was 0. The “Plant response rating, Pigweed” value (pigweed; [7]) was 0, the “Pigweed plant response rating (0 to 100 scale, 0 is no effect, 100 is complete control)” value (pigweed; Postemergence, 500 g ai/ha) was 0 and the “Plant response rating, Pigweed” value (pigweed; [8]) was 0. For the same molecule, the “Plant response rating, Ragweed” value (ragweed; [3]) was 0, the “Plant response rating, Ragweed” value (ragweed; [7]) was 0 and the “Ragweed plant response rating (0 to 100 scale, 0 is no effect, 100 is complete control)” value (ragweed; Postemergence, 500 g ai/ha) was 0. The “Plant response rating, Ragweed” value (ragweed; [8]) was 0, the “Plant response rating, Blackgrass” value (blackgrass; [9]) was 0 and the “Blackgrass plant response rating (0 to 100 scale, 0 is no effect, 100 is complete control)” value (blackgrass; 500 g ai/ha) was 30.

With `O=C1NCC(c2cc3ccccc3s2)C1C(=O)Nc1cccc(F)c1F` (stereo not drawn) [Compound 296] the “Plant response rating, Foxtail, Giant” value (giant foxtail; [10]) was 0, the “Plant response rating, Foxtail, Giant” value (giant foxtail; [11]) was 0 and the “Plant response rating, Foxtail, Giant” value (giant foxtail; [12]) was 0. For the same molecule, the “Plant response rating, Foxtail, Giant” value (giant foxtail; [8]) was 0, the “Plant response rating, Ryegrass, Italian” value (ryegrass, Italian; [10]) was 0 and the “Plant response rating, Ryegrass, Italian” value (ryegrass, Italian; [11]) was 0. For the same molecule, the “Plant response rating, Ryegrass, Italian” value (ryegrass, Italian; [12]) was 0, the “Ryegrass, Italian plant response rating” value (ryegrass, Italian; Preemergence, 500 g ai/ha, visual rating on 0 to 100 scale (0 no effect, 100 complete control)) was 0 and the “Plant response rating, Ducksalad” value (ducksalad) was 60. The “Plant response rating, Corn” value (corn; [13]) was 0, the “Plant response rating, Corn” value (corn; [14]) was 0 and the “Plant response rating, Sedge, Umbrella” value (sedge, umbrella) was 0. For the same molecule, the “Plant response rating, Barnyardgrass” value (barnyardgrass [1]; [10]) was 0, the “Plant response rating, Barnyardgrass” value (barnyardgrass [1]; [11]) was 20 and the “Plant response rating, Barnyardgrass” value (barnyardgrass [1]; [12]) was 0. For the same molecule, the “Plant response rating, Barnyardgrass” value (barnyardgrass [1]; [8]) was 0, the “Plant response rating, Barnyardgrass” value (barnyardgrass [2]) was 30 and the “Plant response rating, Wheat” value (wheat; [13]) was 0. The “Plant response rating, Wheat” value (wheat; [14]) was 0, the “Plant response rating, Galium” value (galium; [13]) was 0 and the “Plant response rating, Galium” value (galium; [14]) was 0. For the same molecule, the “Plant response rating, Kochia” value (kochia; [10]) was 0, the “Plant response rating, Kochia” value (kochia; [11]) was 0 and the “Plant response rating, Kochia” value (kochia; [12]) was 0. For the same molecule, the “Plant response rating, Kochia” value (kochia; [8]) was 0, the “Plant response rating, Rice” value (rice) was 0 and the “Plant response rating, Pigweed” value (pigweed; [10]) was 0. The “Plant response rating, Pigweed” value (pigweed; [11]) was 0, the “Plant response rating, Pigweed” value (pigweed; [12]) was 0 and the “Plant response rating, Pigweed” value (pigweed; [8]) was 0. For the same molecule, the “Plant response rating, Ragweed” value (ragweed; [10]) was 0, the “Plant response rating, Ragweed” value (ragweed; [11]) was 0 and the “Plant response rating, Ragweed” value (ragweed; [12]) was 0. For the same molecule, the “Plant response rating, Ragweed” value (ragweed; [8]) was 0, the “Plant response rating, Blackgrass” value (blackgrass; [13]) was 0 and the “Plant response rating, Blackgrass” value (blackgrass; [14]) was 0.

Source: patent US10294202B2, “Pyrrolidinones as herbicides” (FMC Corporation, priority 2013, dated 2019)
